Experimental data: the CheMixHub viscosity set
± gives the uncertainty stated by the source.

Test: xn = mol fraction of the nth substance listed

`CCCCCCCCCCCCCCCC` + CCCCCC showed a viscosity (298.09 K, 100 kPa, x1 = 0.8) of 2.236 ± 0.091 mPa·s, a viscosity (298.12 K, 100 kPa, x1 = 0.4) of 0.991 ± 0.04 mPa·s and a viscosity (298.15 K, 100 kPa, x1 = 0.6) of 1.518 ± 0.062 mPa·s. The viscosity (298.15 K, 101 kPa, x1 = 0.1995) was 0.6062 ± 0.051 mPa·s, the viscosity (298.15 K, 101 kPa, x1 = 0.3978) was 1.017 ± 0.11 mPa·s and the viscosity (298.15 K, 101 kPa, x1 = 0.5746) was 1.453 ± 0.18 mPa·s. The viscosity (298.15 K, 101 kPa, x1 = 0.8011) was 2.209 ± 0.34 mPa·s, the viscosity (298.15 K, 101.33 kPa, x2 = 0.1046) was 2.659 ± 0.032 mPa·s and the viscosity (298.15 K, 101.33 kPa, x2 = 0.1966) was 2.25 ± 0.027 mPa·s. The viscosity (298.15 K, 101.33 kPa, x2 = 0.3) was 1.88 ± 0.023 mPa·s, the viscosity (298.15 K, 101.33 kPa, x2 = 0.4037) was 1.547 ± 0.019 mPa·s and the viscosity (298.15 K, 101.33 kPa, x2 = 0.5142) was 1.214 ± 0.015 mPa·s. It also gave a viscosity (298.15 K, 101.33 kPa, x2 = 0.6072) of 0.987 ± 0.013 mPa·s, a viscosity (298.15 K, 101.33 kPa, x2 = 0.7062) of 0.7626 ± 0.01 mPa·s and a viscosity (298.15 K, 101.33 kPa, x2 = 0.8048) of 0.58 ± 0.0081 mPa·s. The viscosity (298.15 K, 101.33 kPa, x2 = 0.9026) was 0.4277 ± 0.0064 mPa·s, the viscosity (298.19 K, 101 kPa, x2 = 0.1987) was 2.235 ± 0.026 mPa·s and the viscosity (298.19 K, 101 kPa, x2 = 0.3772) was 1.607 ± 0.019 mPa·s. The viscosity (298.19 K, 101 kPa, x2 = 0.5983) was 1.001 ± 0.012 mPa·s, the viscosity (298.19 K, 101 kPa, x2 = 0.7982) was 0.5933 ± 0.0074 mPa·s and the viscosity (298.22 K, 100 kPa, x1 = 0.2) was 0.584 ± 0.024 mPa·s. The viscosity (318.26 K, 101 kPa, x2 = 0.1976) was 1.534 ± 0.018 mPa·s, the viscosity (318.26 K, 101 kPa, x2 = 0.3758) was 1.155 ± 0.014 mPa·s and the viscosity (318.26 K, 101 kPa, x2 = 0.5971) was 0.7591 ± 0.0093 mPa·s. It also gave a viscosity (318.26 K, 101 kPa, x2 = 0.7975) of 0.4712 ± 0.006 mPa·s and a viscosity (323.13 K, 100 kPa, x1 = 0.6) of 1.028 ± 0.042 mPa·s.
In the case of `ClC(Cl)Cl` + CCCCCC, the viscosity (293.15 K, 101 kPa, x2 = 0.098) is reported as 0.5269 ± 0.014 mPa·s, the viscosity (293.15 K, 101 kPa, x2 = 0.202) is reported as 0.4839 ± 0.013 mPa·s and the viscosity (293.15 K, 101 kPa, x2 = 0.2873) is reported as 0.4558 ± 0.012 mPa·s. It also gave a viscosity (293.15 K, 101 kPa, x2 = 0.4056) of 0.42 ± 0.011 mPa·s, a viscosity (293.15 K, 101 kPa, x2 = 0.5009) of 0.3965 ± 0.011 mPa·s and a viscosity (293.15 K, 101 kPa, x2 = 0.5885) of 0.3762 ± 0.01 mPa·s. For the same compound, the viscosity (293.15 K, 101 kPa, x2 = 0.7253) was 0.3509 ± 0.0095 mPa·s, the viscosity (293.15 K, 101 kPa, x2 = 0.8116) was 0.3368 ± 0.0091 mPa·s and the viscosity (293.15 K, 101 kPa, x2 = 0.9008) was 0.3242 ± 0.0088 mPa·s. It also gave a viscosity (298.15 K, 101 kPa, x2 = 0.098) of 0.5028 ± 0.013 mPa·s, a viscosity (298.15 K, 101 kPa, x2 = 0.202) of 0.4606 ± 0.012 mPa·s and a viscosity (298.15 K, 101 kPa, x2 = 0.2873) of 0.434 ± 0.012 mPa·s. For the same compound, the viscosity (298.15 K, 101 kPa, x2 = 0.4056) was 0.3996 ± 0.011 mPa·s, the viscosity (298.15 K, 101 kPa, x2 = 0.5009) was 0.3781 ± 0.01 mPa·s and the viscosity (298.15 K, 101 kPa, x2 = 0.5885) was 0.3582 ± 0.0096 mPa·s. The viscosity (298.15 K, 101 kPa, x2 = 0.7253) was 0.3341 ± 0.009 mPa·s, the viscosity (298.15 K, 101 kPa, x2 = 0.8116) was 0.3206 ± 0.0087 mPa·s and the viscosity (298.15 K, 101 kPa, x2 = 0.9008) was 0.309 ± 0.0084 mPa·s. The viscosity (303.15 K, 101 kPa, x2 = 0.098) was 0.4779 ± 0.013 mPa·s, the viscosity (303.15 K, 101 kPa, x2 = 0.202) was 0.4396 ± 0.012 mPa·s and the viscosity (303.15 K, 101 kPa, x2 = 0.2873) was 0.4142 ± 0.011 mPa·s. For the same compound, the viscosity (303.15 K, 101 kPa, x2 = 0.4056) was 0.3811 ± 0.01 mPa·s, the viscosity (303.15 K, 101 kPa, x2 = 0.5009) was 0.3628 ± 0.0098 mPa·s and the viscosity (303.15 K, 101 kPa, x2 = 0.5885) was 0.3413 ± 0.0092 mPa·s. It also gave a viscosity (303.15 K, 101 kPa, x2 = 0.7253) of 0.3186 ± 0.0086 mPa·s, a viscosity (303.15 K, 101 kPa, x2 = 0.8116) of 0.3056 ± 0.0083 mPa·s and a viscosity (303.15 K, 101 kPa, x2 = 0.9008) of 0.2945 ± 0.008 mPa·s. For the same compound, the viscosity (313.15 K, 101 kPa, x2 = 0.098) was 0.4362 ± 0.012 mPa·s, the viscosity (313.15 K, 101 kPa, x2 = 0.202) was 0.3998 ± 0.011 mPa·s and the viscosity (313.15 K, 101 kPa, x2 = 0.2873) was 0.3783 ± 0.01 mPa·s. The viscosity (313.15 K, 101 kPa, x2 = 0.4056) was 0.3472 ± 0.0094 mPa·s, the viscosity (313.15 K, 101 kPa, x2 = 0.5009) was 0.3308 ± 0.0089 mPa·s and the viscosity (313.15 K, 101 kPa, x2 = 0.5885) was 0.311 ± 0.0084 mPa·s. The viscosity (313.15 K, 101 kPa, x2 = 0.7253) was 0.2912 ± 0.0079 mPa·s, the viscosity (313.15 K, 101 kPa, x2 = 0.8116) was 0.2786 ± 0.0076 mPa·s and the viscosity (313.15 K, 101 kPa, x2 = 0.9008) was 0.2683 ± 0.0073 mPa·s.
In the case of `CCCCCCCCCCCCCCCC` + CCCCCCC, the viscosity (293.17 K, 101 kPa, x1 = 0.097) is reported as 0.553 ± 0.015 mPa·s, the viscosity (293.17 K, 101 kPa, x1 = 0.195) is reported as 0.73 ± 0.019 mPa·s and the viscosity (293.17 K, 101 kPa, x1 = 0.492) is reported as 1.475 ± 0.039 mPa·s. For the same compound, the viscosity (293.17 K, 101 kPa, x1 = 0.785) was 2.597 ± 0.068 mPa·s, the viscosity (298 K, 101 kPa, x2 = 0.5) was 1.377 ± 0.036 mPa·s and the viscosity (298.15 K, 101 kPa, x1 = 0.211) was 0.7064 ± 0.016 mPa·s. It also gave a viscosity (298.15 K, 101 kPa, x1 = 0.4067) of 1.102 ± 0.021 mPa·s, a viscosity (298.15 K, 101 kPa, x1 = 0.5795) of 1.552 ± 0.024 mPa·s and a viscosity (298.15 K, 101 kPa, x1 = 0.7867) of 2.202 ± 0.026 mPa·s. It also gave a viscosity (298.15 K, 101.33 kPa, x2 = 0.1067) of 2.618 ± 0.032 mPa·s, a viscosity (298.15 K, 101.33 kPa, x2 = 0.1981) of 2.268 ± 0.027 mPa·s and a viscosity (298.15 K, 101.33 kPa, x2 = 0.3001) of 1.922 ± 0.023 mPa·s. The viscosity (298.15 K, 101.33 kPa, x2 = 0.4055) was 1.603 ± 0.02 mPa·s, the viscosity (298.15 K, 101.33 kPa, x2 = 0.5077) was 1.307 ± 0.016 mPa·s and the viscosity (298.15 K, 101.33 kPa, x2 = 0.607) was 1.08 ± 0.014 mPa·s. It also gave a viscosity (298.15 K, 101.33 kPa, x2 = 0.7086) of 0.8554 ± 0.011 mPa·s, a viscosity (298.15 K, 101.33 kPa, x2 = 0.8028) of 0.68 ± 0.0091 mPa·s and a viscosity (298.15 K, 101.33 kPa, x2 = 0.9019) of 0.5217 ± 0.0073 mPa·s. It also gave a viscosity (303.15 K, 101 kPa, x1 = 0.097) of 0.485 ± 0.013 mPa·s, a viscosity (303.15 K, 101 kPa, x1 = 0.195) of 0.632 ± 0.017 mPa·s and a viscosity (303.15 K, 101 kPa, x1 = 0.492) of 1.233 ± 0.032 mPa·s. It also gave a viscosity (303.15 K, 101 kPa, x1 = 0.785) of 2.079 ± 0.055 mPa·s and a viscosity (318 K, 101 kPa, x2 = 0.5) of 1.005 ± 0.026 mPa·s.
For `CCCCCCCCCCCCCCCC` + CCCCCCCC, the viscosity (298.15 K, 101.33 kPa, x2 = 0.1039) was 2.656 ± 0.032 mPa·s, the viscosity (298.15 K, 101.33 kPa, x2 = 0.2122) was 2.305 ± 0.028 mPa·s and the viscosity (298.15 K, 101.33 kPa, x2 = 0.3109) was 1.973 ± 0.024 mPa·s. For the same compound, the viscosity (298.15 K, 101.33 kPa, x2 = 0.4114) was 1.682 ± 0.021 mPa·s, the viscosity (298.15 K, 101.33 kPa, x2 = 0.5033) was 1.452 ± 0.018 mPa·s and the viscosity (298.15 K, 101.33 kPa, x2 = 0.6068) was 1.205 ± 0.015 mPa·s. For the same compound, the viscosity (298.15 K, 101.33 kPa, x2 = 0.7096) was 0.982 ± 0.013 mPa·s, the viscosity (298.15 K, 101.33 kPa, x2 = 0.8067) was 0.7957 ± 0.01 mPa·s and the viscosity (298.15 K, 101.33 kPa, x2 = 0.9049) was 0.6421 ± 0.0087 mPa·s. For the same compound, the viscosity (318.16 K, 101 kPa, x1 = 0.15) was 0.5758 ± 0.0048 mPa·s, the viscosity (318.16 K, 101 kPa, x1 = 0.3499) was 0.8378 ± 0.0068 mPa·s and the viscosity (318.16 K, 101 kPa, x1 = 0.5001) was 1.073 ± 0.0085 mPa·s. For the same compound, the viscosity (318.16 K, 101 kPa, x1 = 0.6398) was 1.317 ± 0.01 mPa·s and the viscosity (318.16 K, 101 kPa, x1 = 0.7996) was 1.627 ± 0.013 mPa·s.
Work on `CCCCCCCCCCCCCCCC` + CCCCCCCCCC yielded a viscosity (298.15 K, 101.33 kPa, x2 = 0.1051) of 2.749 ± 0.033 mPa·s, a viscosity (298.15 K, 101.33 kPa, x2 = 0.2075) of 2.481 ± 0.03 mPa·s and a viscosity (298.15 K, 101.33 kPa, x2 = 0.3045) of 2.2 ± 0.027 mPa·s. It also gave a viscosity (298.15 K, 101.33 kPa, x2 = 0.4045) of 1.976 ± 0.024 mPa·s, a viscosity (298.15 K, 101.33 kPa, x2 = 0.5081) of 1.733 ± 0.021 mPa·s and a viscosity (298.15 K, 101.33 kPa, x2 = 0.6095) of 1.53 ± 0.019 mPa·s. It also gave a viscosity (298.15 K, 101.33 kPa, x2 = 0.7051) of 1.336 ± 0.017 mPa·s, a viscosity (298.15 K, 101.33 kPa, x2 = 0.8037) of 1.17 ± 0.015 mPa·s and a viscosity (298.15 K, 101.33 kPa, x2 = 0.9041) of 0.9885 ± 0.013 mPa·s. For the same compound, the viscosity (313.15 K, 100 kPa, x2 = 0.35) was 1.6 ± 0.07 mPa·s, the viscosity (313.15 K, 100 kPa, x2 = 0.61) was 1.18 ± 0.052 mPa·s and the viscosity (313.15 K, 100 kPa, x2 = 0.83) was 0.9 ± 0.039 mPa·s.
